Assay results from PMC8489181 (Clinical cancer research : an official journal of the …, 2020).

Tests used:
[1] = test system: postmenopausal women with HR+, HER2− advanced breast cancer; assay: Safety and tolerability; type: in vivo, human
[2] = ribociclib CYP3A4 inhibitor, everolimus CYP3A4 substrate; cited from earlier work
[3] = test system: postmenopausal women with ER+, HER2− ABC; assay: Dose-limiting toxicities in cycle 1; type: in vivo
[4] = Everolimus whole blood pharmacokinetics; type: in vivo, human; conditions: for AUC(0-t): AUC0–24h at steady state; for AUC(0-t) / Cmax: everolimus 2.5 mg; for Cmax: geometric mean Cmax at steady state
[5] = Ribociclib plasma pharmacokinetics; type: in vivo, human; conditions: for AUC(0-t): geometric mean AUC0–24h at steady state; for half-life: geometric mean effective half-life based on drug accumulation
[6] = dose-escalation group 1 (fasting)
[7] = taken with food, ribociclib 3 weeks on/1 week off in a 4-week cycle
[8] = female, human, whole blood, oral, dose-escalation group 1
[9] = female, human, whole blood, oral, dose-escalation group 2
[10] = dose-expansion group 1 (CDK4/6i-naïve)
[11] = dose-expansion group 2 (CDK4/6i-refractory)
[12] = female, human, plasma, oral, dose-escalation group 1
[13] = female, human, plasma, oral, dose-escalation group 2

## CO[C@H]1C[C@@H]2CC[C@@H](C)[C@@](O)(O2)C(=O)C(=O)N2CCCC[C@H]2C(=O)O[C@H]([C@H](C)C[C@@H]2CC[C@@H](OCCO)[C@H](OC)C2)CC(=O)[C@H](C)/C=C(\C)[C@@H](O)[C@@H](OC)C(=O)[C@H](C)C[C@H](C)/C=C/C=C/C=C/1C [everolimus]
[1]; [6]
  patients requiring ≥1 dose interruption: 70.7%
  patients requiring ≥1 dose reduction: 2.4%
[1]; dose-escalation group 2 (fed)
  patients requiring ≥1 dose interruption: 83.3%
  patients requiring ≥1 dose reduction: 4.8%
[1]; dose-expansion phase
  dose reductions: no dose reductions
[2]
  expected increase of everolimus exposure by treatment with ribociclib: approximately 3.5 fold
[3]; [7]
  recommended phase II dose (RP2D) in the triplet: 2.5 mg once daily
[4]; at the RP2D
  AUC0–24h: 303 ng·h/mL
[4]; dose-escalation phase
  everolimus exposure increase in the presence of ribociclib (dose-dependent DDI): two- to fourfold
[4]; female, human, whole blood, oral
  Tmax: 1 to 2 h
[4]; [8]
  AUC(0-t): 166 to 307 ng·h/mL
  Cmax: 19.7 to 30.3 ng/mL
[4]; [9]
  AUC(0-t): 117 to 316 ng·h/mL
  Cmax: 8.25 to 29.4 ng/mL

## C=C1C[C@@H]2[C@H](CC[C@]3(C)C(=O)CC[C@@H]23)[C@@]2(C)C=CC(=O)C=C12 [exemestane]
[1]; [6]
  patients requiring ≥1 dose interruption: 61%
[1]; dose-escalation group 2 (fed)
  patients requiring ≥1 dose interruption: 71.4%
[3]; female, human, in vivo, 28 days
  recommended phase II dose (RP2D) in the triplet: 25 mg once daily

## CN(C)C(=O)c1cc2cnc(Nc3ccc(N4CCNCC4)cn3)nc2n1C1CCCC1 [ribociclib]
[1]; [6]
  patients requiring ≥1 dose interruption: 68.3%
  patients requiring ≥1 dose reduction: 22.0%
[1]; dose-escalation group 2 (fed)
  patients requiring ≥1 dose interruption: 80.9%
  patients requiring ≥1 dose reduction: 33.3%
[1]; [10]
  patients requiring ≥1 dose interruption: 87.5%
  patients requiring ≥1 dose reduction: 43.8%
[1]; [11]
  patients requiring ≥1 dose interruption: 82.4%
  patients requiring ≥1 dose reduction: 23.5%
[5]; female, human, plasma, oral
  Tmax: 1 to 4 h
[5]; female, human, plasma, oral, Cmax at steady state, at the RP2D
  Cmax: 773 ng/mL
[5]; [12]
  AUC(0-t): 4570 to 11100 ng·h/mL
  half-life: 24.9 to 47.6 h
[5]; [13]
  AUC(0-t): 3970 to 13400 ng·h/mL
  half-life: 29.5 to 49.9 h
[5]; female, human, plasma, oral, geometric mean Cmax at steady state, dose-escalation group 1, 200–350 mg dose
  Cmax: 413 to 1000 ng/mL
[5]; female, human, plasma, oral, geometric mean Cmax at steady state, dose-escalation group 2
  Cmax: 289 to 955 ng/mL
[5]; same dose level, fed versus fasted
  mean steady-state exposure in the presence of food: slightly lower
[5]; triplet combination, versus single-agent ribociclib exposure
  DDI in the presence of everolimus and exemestane: No DDIs were observed
[3]; [7]
  recommended phase II dose (RP2D) in the triplet: 300 mg once daily
